Source: PMC9732823, “Discovery of Dual Aβ/Tau Inhibitors and Evaluation of Their Therapeutic Effect on a Drosophila Model of Alzheimer’s Disease” (ACS Chemical Neuroscience, 2022)

Legend:
PAMPA-BBB assay = test: PAMPA-BBB assay
From the text: Thus, to reduce attrition in the development process, the evaluation of BBB penetration at a very early drug discovery stage is of crucial importance. In light of this, the ability of the previously selected compounds to cross the BBB was predicted by a parallel artificial membrane permeability assay (PAMPA)-BBB,[41] a high-throughput technique widely used as an indicator of a molecule’s passive diffusion through the BBB. Six commercially available drugs were used to validate the assay.
PAMPA (the parallel artificial membrane permeability assay) is a high-throughput screening tool applicable for the prediction of the passive transport of potential drugs across the BBB.[41] In this study, it has been used as a non-cell-based in vitro assay carried out in a coated 96-well membrane filter. The filter membrane of the donor plate was coated with PBL (Polar Brain Lipid, Avanti) in dodecane (4 μL of 20 mg/mL PBL in dodecane) and the acceptor well was filled with 300 μL of phosphate buffer saline, (PBS pH 7.4; VA). The tested compounds were dissolved first in DMSO and then diluted with PBS pH 7.4 to reach the final concentrations of 50–500 μM in the donor well. […] Then, 300 μL of the donor solution (VD) was added to the donor wells and the donor filter plate was carefully put on the acceptor plate so that the coated membrane was “in touch” with both donor solution and acceptor buffer. In principle, the test compound diffuses from the donor well through the polar brain lipid membrane (area = 0.28 cm^2) to the acceptor well. The concentrations of the tested compound in both donor and the acceptor wells were assessed after 3, 4, 5, and 6 h of incubation in quadruplicate using a UV plate reader, Synergy HT (Biotek) at the maximum absorption wavelength of each compound (n=3). In addition to that, solution of the theoretical compound concentration, simulating the equilibrium state established if the membrane were ideally permeable, was prepared and assessed as well. The concentrations of the compounds in the donor and acceptor wells and the equilibrium concentration were calculated from the standard curve and expressed as the permeability (Pe) according to the equation[41] [drawing 1] where [drawing 2]

preaggregated Aβ42 = molecular target: T1, preaggregated Aβ42 (Homo sapiens, UniProt P05067); test: Optical properties of 23 in the presence of aggregated Aβ42 (fluorescence emission spectra); format: binding; details: 23 0.375 μM, Aβ42 0.75 μM, Gly-NaOH buffer 50 mM pH 8.5, λexc = 374 nm
T1 construct: (HFIP)-pretreated Aβ42 samples (Bachem AG, Switzerland); purchased Bachem AG, Switzerland
From the text: The interaction of a fluorescent compound with three-dimensionally organized Aβ42 fibrils may lead to a change in its fluorescent properties as a consequence of either a reduction of flexibility due to multiple-interaction points and/or of a change in compound–solvent interactions because of the insertion of the compound within fibril helices. […] This assay setup allows the use of a slightly higher amount of DMSO, which is sufficient to grant compound solubility, because addition of the tested compound to Aβ42 samples is performed when fibrillization has already occurred.
Thus, we recorded the emission spectra of compound 23 in the absence and presence of preaggregated Aβ42.
As reported in a previously published protocol,[42] 1,1,1,3,3,3,-hexafluoro-2-propanol (HFIP)-pretreated Aβ42 samples (Bachem AG, Switzerland) were solubilized with a CH3CN/0.3 mM Na2CO3/250 mM NaOH (48.4:48.4:3.2) mixture to obtain a 500 μM solution. […]
A 1.5 mM stock solution of 23 in methanol was prepared and diluted in 50 mM glycine–NaOH buffer (pH 8.5) to a final concentration of 0.375 μM. Excitation and emission fluorescence spectra in the absence and in the presence of preaggregated Aβ42 (0.75 μM) were recorded using the following instrument setup: λexc = 374 nm, emission range = 400–600 nm; λem = 473 nm; excitation range = 250–460 nm; bandwidth (Ex) = 5 nm; bandwidth (Em) = 5 nm; scanning speed = […].

[1] = Solubility in the in vitro aggregation assay conditions; details: dedicated solubility assays
Description: * The results are the mean of at least two independent measurements each performed in duplicate.
1 Compounds were measured at 50 μM.
NS = not soluble in the assay conditions

[2] = system: cerebellar granule neurons (CGNs); test: Neurotoxicity on primary cultures of cerebellar granule neurons (nuclei counting after Hoechst staining); details: differentiated CGNs, 24 h, percentage of healthy nuclei on total nuclei, mean ± SEM of three experiments

T1 sequence (P05067 672-713 limits assumed): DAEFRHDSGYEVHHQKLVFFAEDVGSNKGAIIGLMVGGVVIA

## CN(C)CCN1C(=O)S/C(=C\c2ccc3c(c2)C(C)(C)c2cc(/C=C4\SC(=O)N(CCN(C)C)C4=O)ccc2-3)C1=O [Compound 23, (5Z,5′Z)-5,5′-((9,9-Dimethyl-9H-fluorene-2,7-diyl)bis(methanylylidene))bis(3-(2-(dimethylamino)ethyl)thiazolidine-2,4-dione)]
PAMPA-BBB assay; PAMPA, pH 7.4
  Papp: 18.9 ± 5.39 ×10⁻⁶ cm/s
PAMPA-BBB assay; PAMPA-BBB
  BBB permeability prediction: predicted to passively diffuse across the BBB
PAMPA-BBB assay; PAMPA-BBB penetration estimation
  CNS (+/-): CNS + (CNS + (high BBB permeation predicted): Pe (×10-6 cm s-1) > 4.0)
Preaggregated Aβ42
  change of fluorescence emission upon binding to preaggregated Aβ42: strong hyperchromic effect upon binding
[1]
  solubility in Aβ42 ThT-based assay condition: too limited to grant trustable results
[2]
  % survival neurotoxicity @ 10 μM: 87.9 ± 3.4%
